Assay results from patent US20040171543A1, “Matrix metalloproteinase inhibitors and methods for identification of lead compounds” (priority 2002, published 2004).

Assays:
Format in all cases: biochemical
[1] = target: T1, MMP-13 catalytic domain (MMP-13CD) (Homo sapiens, UniProt P45452); assay: Fluorigenic peptide-1 substrate based assay, MMP-13CD, with/without AcNHOH; conditions: IC50 with AcNHOH divided by IC50 without, listed as drawing 47
T1 construct: The catalytic domain of the MMP-13 enzyme, namely matrix metalloproteinase-13 catalytic domain (“MMP-13CD”)
Experimental: The catalytic domain of the MMP-13 enzyme, namely matrix metalloproteinase-13 catalytic domain (“MMP-13CD”), rather than the corresponding full-length enzyme, MMP-13 was used in such assay.
50 mM HEPES buffer (pH 7.0)
2% DMSO (with or without inhibitor test compound)
1. Dispensed 2 μL inhibitor test sample (in 100% DMSO) into well.
2. Added 88 μL assay mixture and mixed well, avoiding bubbles.
3. Initiated reactions with 10 μL of 5 nM MMP-13CD; mixed well, avoiding bubbles.
4. Immediately measured the kinetics of the reactions at room temperature.
Alternatively, an endpoint read can also be used to determine reaction velocity provided the initial fluorescence of the solution, as recorded before addition of enzyme, is subtracted from the final fluorescence of the reaction mixture.

MMP-2 full length (2FL) = target: T2, MMP-2 full length (2FL) (Homo sapiens, UniProt P08253); assay: Fluorigenic peptide-1 substrate based assay, MMP-2, with/without AcNHOH
T2 sequence (P08253 110-660): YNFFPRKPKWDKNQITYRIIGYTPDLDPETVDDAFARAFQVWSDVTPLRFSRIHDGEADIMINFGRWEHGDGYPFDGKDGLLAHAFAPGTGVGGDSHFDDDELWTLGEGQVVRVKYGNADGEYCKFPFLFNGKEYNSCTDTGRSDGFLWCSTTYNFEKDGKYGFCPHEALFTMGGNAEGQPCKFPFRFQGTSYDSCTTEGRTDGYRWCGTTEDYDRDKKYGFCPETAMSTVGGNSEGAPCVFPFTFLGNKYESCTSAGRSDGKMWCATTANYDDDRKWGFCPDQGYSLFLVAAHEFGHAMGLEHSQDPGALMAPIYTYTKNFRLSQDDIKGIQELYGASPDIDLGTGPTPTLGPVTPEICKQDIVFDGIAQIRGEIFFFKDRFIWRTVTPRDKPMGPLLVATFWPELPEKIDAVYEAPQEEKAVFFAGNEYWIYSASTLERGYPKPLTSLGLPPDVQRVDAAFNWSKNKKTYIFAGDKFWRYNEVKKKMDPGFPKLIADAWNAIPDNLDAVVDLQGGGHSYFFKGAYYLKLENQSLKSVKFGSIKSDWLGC

MMP-9 full length (9FL) = target: T3, MMP-9 full length (9FL) (Homo sapiens, UniProt P14780); assay: Fluorigenic peptide-1 substrate based assay, MMP-9, with/without AcNHOH
T3 construct: purchased Calbiochem; host or cells: stimulated neutrophils
Source text: MMP-9 may be obtained from commercial sources. For example, full-length pro-MMP-9 purified from stimulated neutrophils is available from Calbiochem.

MMP-2 = target: T4, MMP-2 (Homo sapiens, UniProt P08253); assay: Steady-state kinetics of the mechanism of inhibition of MMP-2; conditions: 6 inhibitor concentrations 0 to 600 nanomolar, FIG. 8
T4 sequence (P08253 110-660): T2 sequence (P08253 110-660)
Source text: In FIG. 8, 1 over the initial velocity Vo, which is the initial rate of product formation in a steady state kinetics assay, is plotted on the Y-axis versus 1 over concentration of substrate [S] used in the assay on the X-axis for inhibition of MMP-2 with N-[(3-phenylisoxazol-5-ylmethyl)-aminothiocarbonyl]-benzamide at 6 concentrations of from 0 nanomolar to 600 nanomolar.

T3 sequence (P14780 107-707 limits assumed): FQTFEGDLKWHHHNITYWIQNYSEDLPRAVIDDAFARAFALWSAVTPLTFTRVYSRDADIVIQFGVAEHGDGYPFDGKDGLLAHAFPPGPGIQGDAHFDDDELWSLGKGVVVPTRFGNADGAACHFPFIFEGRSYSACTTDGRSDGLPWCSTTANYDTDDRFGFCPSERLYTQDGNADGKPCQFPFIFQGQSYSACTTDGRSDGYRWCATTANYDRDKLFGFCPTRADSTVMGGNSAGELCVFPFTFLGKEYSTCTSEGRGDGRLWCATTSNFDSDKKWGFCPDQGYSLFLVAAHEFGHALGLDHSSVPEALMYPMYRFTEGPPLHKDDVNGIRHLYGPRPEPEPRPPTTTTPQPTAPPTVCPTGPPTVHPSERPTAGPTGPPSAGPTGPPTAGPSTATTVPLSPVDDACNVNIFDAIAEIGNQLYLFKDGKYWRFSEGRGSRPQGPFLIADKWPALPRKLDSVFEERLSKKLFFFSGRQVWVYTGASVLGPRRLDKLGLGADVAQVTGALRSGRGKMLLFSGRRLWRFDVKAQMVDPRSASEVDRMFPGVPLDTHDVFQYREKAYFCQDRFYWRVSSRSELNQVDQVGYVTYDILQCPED

IC50 Ratio (±) [1]: 0.09
IC50 Ratio (±) (MMP-2 full length (2FL)): 0.10
IC50 Ratio (±) (MMP-9 full length (9FL)): 0.39
Mechanism of inhibition of MMP-2 (MMP-2): uncompetitive inhibitor
SMILES: O=C(NC(=S)NCc1cc(-c2ccccc2)no1)c1ccccc1 [N-[(3-phenylisoxazol-5-ylmethyl)-aminothiocarbonyl]-benzamide]
